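How tested: cells in 96-well plates exposed to compound for 48 hours at five concentrations. TGI: concentration producing complete growth inhibition.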
Assays:
Assay in all cases: growth of human tumour cells (NCI), 48 h
OVCAR-8 ovarian = system: OVCAR-8 ovarian
A498 renal = system: A498 renal
HCT-15 colon = system: HCT-15 colon
U251 CNS = system: U251 CNS
HCC-2998 colon = system: HCC-2998 colon
UACC-62 melanoma = system: UACC-62 melanoma
OVCAR-3 ovarian = system: OVCAR-3 ovarian
RPMI-8226 leukemia = system: RPMI-8226 leukemia
SNB-75 CNS = system: SNB-75 CNS
CAKI-1 renal = system: CAKI-1 renal
HOP-62 NSCLC = system: HOP-62 NSCLC
HS 578T breast = system: HS 578T breast
SNB-19 CNS = system: SNB-19 CNS
K-562 leukemia = system: K-562 leukemia
NCI-H522 lung = system: NCI-H522 lung
M14 melanoma = system: M14 melanoma
OVCAR-4 ovarian = system: OVCAR-4 ovarian
BT-549 breast = system: BT-549 breast
HCT-116 colon = system: HCT-116 colon
TK-10 renal = system: TK-10 renal
EKVX NSCLC = system: EKVX NSCLC
KM12 colon = system: KM12 colon
HOP-92 NSCLC = system: HOP-92 NSCLC
SN12C renal = system: SN12C renal
RXF 393 renal = system: RXF 393 renal
SF-268 CNS = system: SF-268 CNS
SF-295 CNS = system: SF-295 CNS
SK-MEL-2 melanoma = system: SK-MEL-2 melanoma
NCI-H23 lung = system: NCI-H23 lung
MALME-3M melanoma = system: MALME-3M melanoma
ACHN renal = system: ACHN renal
DU-145 prostate = system: DU-145 prostate
MDA-MB-231 breast = system: MDA-MB-231 breast
LOX IMVI melanoma = system: LOX IMVI melanoma
PC-3 prostate = system: PC-3 prostate
MOLT-4 leukemia = system: MOLT-4 leukemia
SF-539 CNS = system: SF-539 CNS
SK-MEL-5 melanoma = system: SK-MEL-5 melanoma
SR leukemia = system: SR leukemia
SK-OV-3 ovarian = system: SK-OV-3 ovarian
SW-620 colon = system: SW-620 colon
OVCAR-5 ovarian = system: OVCAR-5 ovarian
MCF7 breast = system: MCF7 breast
NCI-H226 lung = system: NCI-H226 lung
MDA-MB-435 = system: MDA-MB-435
NCI/ADR-RES ovarian = system: NCI/ADR-RES ovarian
NCI-H460 lung = system: NCI-H460 lung
SK-MEL-28 melanoma = system: SK-MEL-28 melanoma
A549 NSCLC = system: A549 NSCLC
UACC-257 melanoma = system: UACC-257 melanoma
HL-60(TB) leukemia = system: HL-60(TB) leukemia

SMILES: COc1cc2cc(C(=O)N3CC(CCl)c4c3cc(N(C)C)c3ccccc43)[nH]c2c(OC)c1OC (configuration not stated)
- TGI (OVCAR-8 ovarian): 0.0206 µM
- TGI (A498 renal): 0.0174 µM
- TGI (HCT-15 colon): > 41.4 µM
- TGI (U251 CNS): 4.66 µM
- TGI (HCC-2998 colon): 0.0809 µM
- TGI (UACC-62 melanoma): 0.0167 µM
- TGI (OVCAR-3 ovarian): 0.0377 µM
- TGI (RPMI-8226 leukemia): 0.501 µM
- TGI (SNB-75 CNS): 0.0252 µM
- TGI (CAKI-1 renal): < 0.01 µM
- TGI (HOP-62 NSCLC): 0.0529 µM
- TGI (HS 578T breast): 0.135 µM
- TGI (SNB-19 CNS): 10.6 µM
- TGI (K-562 leukemia): 0.0477 µM
- TGI (NCI-H522 lung): 0.0261 µM
- TGI (M14 melanoma): 0.0185 µM
- TGI (OVCAR-4 ovarian): 0.114 µM
- TGI (BT-549 breast): 5.91 µM
- TGI (HCT-116 colon): > 100 µM
- TGI (TK-10 renal): > 100 µM
- TGI (EKVX NSCLC): 0.0245 µM
- TGI (KM12 colon): 1.09 µM
- TGI (HOP-92 NSCLC): > 53.9 µM
- TGI (SN12C renal): 0.235 µM
- TGI (RXF 393 renal): 0.0334 µM
- TGI (SF-268 CNS): 0.016 µM
- TGI (SF-295 CNS): 0.0381 µM
- TGI (SK-MEL-2 melanoma): < 0.01 µM
- TGI (NCI-H23 lung): 0.0127 µM
- TGI (MALME-3M melanoma): 0.0976 µM
- TGI (ACHN renal): > 100 µM
- TGI (DU-145 prostate): 0.492 µM
- TGI (MDA-MB-231 breast): > 100 µM
- TGI (LOX IMVI melanoma): 1.86 µM
- TGI (PC-3 prostate): 0.18 µM
- TGI (MOLT-4 leukemia): 0.0608 µM
- TGI (SF-539 CNS): 0.0132 µM
- TGI (SK-MEL-5 melanoma): 0.0241 µM
- TGI (SR leukemia): < 0.01 µM
- TGI (SK-OV-3 ovarian): 0.0395 µM
- TGI (SW-620 colon): > 100 µM
- TGI (OVCAR-5 ovarian): 0.039 µM

SMILES: CC(C)(C)c1ccc2c(c1)CNCCNCCNCc1cc(C(C)(C)C)ccc1OCC1(CO2)COc2ccc(C(C)(C)C)cc2CNCCNCCNCc2cc(C(C)(C)C)ccc2OC1
- TGI (CAKI-1 renal): 3.17 µM
- TGI (MCF7 breast): 0.379 µM
- TGI (M14 melanoma): 1.83 µM
- TGI (NCI-H226 lung): 1.97 µM
- TGI (KM12 colon): 0.562 µM
- TGI (RXF 393 renal): 3.74 µM
- TGI (ACHN renal): 2.83 µM
- TGI (DU-145 prostate): 2.83 µM
- TGI (SW-620 colon): 1.33 µM

SMILES: CN(C)CCCn1c(-c2cc(C(C)(C)C)c(O)c(C(C)(C)C)c2)csc1=Nc1ccccc1
- TGI (MDA-MB-435): 5 µM
- TGI (NCI/ADR-RES ovarian): 3.45 µM
- TGI (A498 renal): 6.94 µM
- TGI (HCT-15 colon): 9.05 µM
- TGI (HCC-2998 colon): 3.65 µM
- TGI (UACC-62 melanoma): 4.62 µM
- TGI (OVCAR-3 ovarian): 3.04 µM
- TGI (SNB-75 CNS): 8.34 µM
- TGI (CAKI-1 renal): 52.4 µM
- TGI (HOP-62 NSCLC): 3.34 µM
- TGI (NCI-H460 lung): 6.58 µM
- TGI (SNB-19 CNS): 4.52 µM
- TGI (M14 melanoma): 3.84 µM
- TGI (NCI-H226 lung): 3.59 µM
- TGI (BT-549 breast): 7.8 µM
- TGI (TK-10 renal): 5.45 µM
- TGI (EKVX NSCLC): 4.26 µM
- TGI (SK-MEL-28 melanoma): 4.73 µM
- TGI (KM12 colon): 3.6 µM
- TGI (SN12C renal): 6.15 µM
- TGI (RXF 393 renal): 4.01 µM
- TGI (SF-268 CNS): 3.95 µM
- TGI (SF-295 CNS): 3.26 µM
- TGI (SK-MEL-2 melanoma): 8.51 µM
- TGI (NCI-H23 lung): 3.73 µM
- TGI (ACHN renal): 9.14 µM
- TGI (MDA-MB-231 breast): 20.8 µM
- TGI (A549 NSCLC): 3.46 µM
- TGI (PC-3 prostate): 3.58 µM
- TGI (MOLT-4 leukemia): 0.547 µM
- TGI (SF-539 CNS): 3.38 µM
- TGI (UACC-257 melanoma): 3.39 µM
- TGI (HL-60(TB) leukemia): 8.76 µM
- TGI (SK-OV-3 ovarian): 3.94 µM
- TGI (SW-620 colon): > 100 µM
- TGI (OVCAR-5 ovarian): 4.19 µM
